Reference: patent US20110196006A1, “IMAZALIL COMPOSITIONS COMPRISING ALKOXYLATED AMINES” (priority 2004, published 2011)

How the values were obtained:
Microdochium nivale [1] = test: Experiment 2: poison plate assay (growth inhibition, MIC); format: cell-based; details: as Experiment 1, imazalil 10-2.37 ppm, alkoxylated amine 40-9.49 ppm
Procedure: Activity against growth of Microdochium nivale was determined with the poison plate assay. A calculated amount of a stock solution (containing either imazalil or an alkoxylated amine of formula (I) dissolved in dimethyl sulfoxide was pipetted into multiwell plates. Culture medium (potato dextrose agar) was added aseptically and uniform distribution was obtained by shaking. The plates were inoculated with the test fungus Microdochium nivale (suspension of 6.10^5 spores/ml). The multi-well plates were kept in the dark at 21° C. and a relative humidity of 75%. The lowest concentration of each test compound or mixture of test compounds sufficient to inhibit visible growth was taken as the minimum inhibitory concentration (MIC). The MIC were taken as end points of activity. End points for the combinations of imazalil with an alkoxylated amine of formula (I) were then compared with the end points for these test compound when employed individually. A similar poison plate assay was run as described in Experiment 1, but the final concentrations of imazalil now ranged from 10, 7.50, 5.63, 4.22, 3.16 to 2.37 ppm. The final concentrations of alkoxylated amine of formula (I) now ranged from 40, 30, 22.50, 16.88, 12.66 to 9.49 ppm.

Microdochium nivale [2] = test: Experiment 1: poison plate assay (growth inhibition, MIC); format: cell-based; details: potato dextrose agar, 21° C., dark, 75% relative humidity, imazalil 6.66-1.58 ppm, alkoxylated amine 26.66-6.33 ppm, combinations imazalil:amine 1 to 4
Procedure: Activity against growth of Microdochium nivale was determined with the poison plate assay. A calculated amount of a stock solution (containing either imazalil or an alkoxylated amine of formula (I) dissolved in dimethyl sulfoxide was pipetted into multiwell plates. Culture medium (potato dextrose agar) was added aseptically and uniform distribution was obtained by shaking. The plates were inoculated with the test fungus Microdochium nivale (suspension of 6.10^5 spores/ml). The multi-well plates were kept in the dark at 21° C. and a relative humidity of 75%. The stock solution comprising imazalil at a concentration of 2000 ppm was pipetted in the multiwell plates in order to reach a final test concentration in six decreasing steps ranging from 6.66, 5.00, 3.75, 2.81, 2.11 and 1.58 ppm. The stock solution comprising an alkoxylated amine of formula (I) at a concentration of 8000 ppm was pipetted in the multiwell plates in order to reach a final test concentration in six decreasing steps ranging from 26.66, 20.00, 15.00, 11.25, 8.44, and 6.33 ppm wherein the ratio of imazalil to alkoxylated amine of formula (I) is 1 to 4 in each of the wells containing both imazalil and alkoxylated amine (I). The lowest concentration of each test compound or mixture of test compounds sufficient to inhibit visible growth was taken as the minimum inhibitory concentration (MIC). The MIC were taken as end points of activity. End points for the combinations of imazalil with an alkoxylated amine of formula (I) were then compared with the end points for these test compound when employed individually.

[3] = Microdochium nivale, read-out: MIC-values (lowest concentration sufficient to inhibit visible growth)

C=CCOC(Cn1ccnc1)c1ccc(Cl)cc1Cl (centres unmarked) [imazalil]
MIC (Microdochium nivale [1]; [3]): 3.16 µg/mL | MIC (Microdochium nivale [2]; [3]): 2.81 µg/mL

N,N′,N′-tris(2-hydroxyethyl)-N-cocoalkyl-1,3-diaminopropane [ethoduomeen C13]
MIC-values (lowest concentration sufficient to inhibit visible growth) (Microdochium nivale [1]): >40 ppm

N,N′,N′-tris-(2-hydroxyethyl)-N-tallowalkyl-1,3-diaminopropane [ethoduomeen T13]
MIC-values (lowest concentration sufficient to inhibit visible growth) (Microdochium nivale [2]): >26.7 ppm

bis-(2-hydroxyethyl)cocoalkylamine [ethomeen C12]
MIC-values (lowest concentration sufficient to inhibit visible growth) (Microdochium nivale [2]): >26.7 ppm
